This note sets out measurements from patent EP1247803A2, “Indolinone compounds suitable for modulation of protein kinases” (Sugen, Inc., priority 1996, dated 1998).

In one experiment the target is T1, FLK-1 receptor (Mus musculus, UniProt P35918).
T1 construct: expressed in transfected cells; host or cells: NIH3T3 C7#3
The experiment in a line: FLK-1 ELISA (kinase activity of the FLK-1 receptor in FLK-1/NIH3T3 cells, VEGF stimulated). Format: cell-based. A digest of the protocol: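 NIH3T3 C7#3 cells expressing FLK-1 were seeded at 25.000 cells/well, serum-starved overnight in 0.1% FBS, then treated with compound for two hours at 37°C (final DMSO 0.5%) before VEGF stimulation. Receptor was captured on anti-rabbit IgG-coated ELISA plates bearing affinity-purified anti-FLK-1 antiserum.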
A general note: In an ELISA, binding on a coated surface is turned into a signal by an enzyme label.

A further experiment concerns the target PDGF-R (Homo sapiens, UniProt P09619). The experiment in a line: PDGF-R ELISA. Format: cell-based. The text has this:
A PDGF-R ELISA is described in International Patent Publication No. WO 96/40116, published December 19, 1996 by Tang et al.

T1 sequence (P35918 20-1345): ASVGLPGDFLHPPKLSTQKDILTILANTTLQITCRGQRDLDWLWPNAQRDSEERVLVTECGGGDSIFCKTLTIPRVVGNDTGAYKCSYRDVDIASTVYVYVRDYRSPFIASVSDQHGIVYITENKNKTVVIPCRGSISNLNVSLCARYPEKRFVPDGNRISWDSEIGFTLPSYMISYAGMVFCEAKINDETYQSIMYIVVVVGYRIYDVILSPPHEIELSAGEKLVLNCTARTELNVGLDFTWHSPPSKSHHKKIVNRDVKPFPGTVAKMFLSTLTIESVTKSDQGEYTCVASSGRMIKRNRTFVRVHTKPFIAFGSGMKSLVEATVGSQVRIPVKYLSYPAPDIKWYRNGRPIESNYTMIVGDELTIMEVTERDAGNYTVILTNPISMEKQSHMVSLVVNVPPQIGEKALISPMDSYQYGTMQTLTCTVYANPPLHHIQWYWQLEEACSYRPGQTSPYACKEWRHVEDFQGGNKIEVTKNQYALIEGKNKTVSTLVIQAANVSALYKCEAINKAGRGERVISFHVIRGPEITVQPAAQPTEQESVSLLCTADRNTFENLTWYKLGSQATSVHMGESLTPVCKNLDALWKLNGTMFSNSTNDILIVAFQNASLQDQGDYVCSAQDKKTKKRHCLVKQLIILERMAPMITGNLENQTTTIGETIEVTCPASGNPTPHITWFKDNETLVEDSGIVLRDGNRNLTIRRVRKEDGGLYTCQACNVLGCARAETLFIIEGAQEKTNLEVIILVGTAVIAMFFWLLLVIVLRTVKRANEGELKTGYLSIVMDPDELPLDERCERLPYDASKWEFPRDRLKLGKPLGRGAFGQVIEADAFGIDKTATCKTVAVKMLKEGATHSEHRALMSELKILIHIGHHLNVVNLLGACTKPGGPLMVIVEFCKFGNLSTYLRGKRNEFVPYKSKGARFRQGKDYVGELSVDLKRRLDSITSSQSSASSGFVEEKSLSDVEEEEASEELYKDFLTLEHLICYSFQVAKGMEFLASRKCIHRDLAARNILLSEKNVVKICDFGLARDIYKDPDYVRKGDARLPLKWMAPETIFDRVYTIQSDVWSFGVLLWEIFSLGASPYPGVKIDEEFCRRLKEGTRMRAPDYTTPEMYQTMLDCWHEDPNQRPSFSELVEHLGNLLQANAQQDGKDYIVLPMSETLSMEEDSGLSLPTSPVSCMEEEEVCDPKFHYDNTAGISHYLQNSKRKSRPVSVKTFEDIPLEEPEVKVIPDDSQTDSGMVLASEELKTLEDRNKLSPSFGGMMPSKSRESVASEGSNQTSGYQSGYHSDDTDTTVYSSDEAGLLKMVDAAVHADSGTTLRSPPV
Chain of PDGF-R (P09619 33-1106, species assumed): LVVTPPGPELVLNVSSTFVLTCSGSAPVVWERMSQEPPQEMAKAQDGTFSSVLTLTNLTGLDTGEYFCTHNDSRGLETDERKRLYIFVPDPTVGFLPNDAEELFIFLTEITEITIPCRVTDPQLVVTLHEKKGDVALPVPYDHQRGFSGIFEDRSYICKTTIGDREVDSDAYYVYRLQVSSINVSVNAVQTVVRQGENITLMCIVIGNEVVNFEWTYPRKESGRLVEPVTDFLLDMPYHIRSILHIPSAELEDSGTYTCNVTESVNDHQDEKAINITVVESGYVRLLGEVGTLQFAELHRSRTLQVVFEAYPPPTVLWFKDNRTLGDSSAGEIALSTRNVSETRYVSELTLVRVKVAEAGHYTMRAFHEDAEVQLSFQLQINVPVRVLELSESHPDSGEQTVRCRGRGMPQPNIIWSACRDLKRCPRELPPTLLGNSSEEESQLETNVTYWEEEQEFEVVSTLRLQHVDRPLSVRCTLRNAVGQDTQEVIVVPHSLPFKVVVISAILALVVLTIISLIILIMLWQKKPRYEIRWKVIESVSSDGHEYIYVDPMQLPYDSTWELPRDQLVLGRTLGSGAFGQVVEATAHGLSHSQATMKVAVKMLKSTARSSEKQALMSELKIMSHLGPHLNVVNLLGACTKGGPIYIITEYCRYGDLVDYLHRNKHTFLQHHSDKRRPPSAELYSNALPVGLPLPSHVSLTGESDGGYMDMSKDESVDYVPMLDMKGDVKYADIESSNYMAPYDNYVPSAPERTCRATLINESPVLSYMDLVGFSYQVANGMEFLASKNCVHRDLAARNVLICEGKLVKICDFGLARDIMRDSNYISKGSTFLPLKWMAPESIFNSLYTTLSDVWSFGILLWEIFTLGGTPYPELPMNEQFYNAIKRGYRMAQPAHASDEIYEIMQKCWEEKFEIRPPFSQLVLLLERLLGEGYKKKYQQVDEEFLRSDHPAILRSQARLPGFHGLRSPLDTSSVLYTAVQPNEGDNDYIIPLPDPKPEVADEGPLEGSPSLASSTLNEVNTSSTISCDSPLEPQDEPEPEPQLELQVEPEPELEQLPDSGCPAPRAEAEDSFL

For `O=C1Nc2ccccc2C1=C1C(=O)Nc2c(Br)cc(Br)cc21` [10726/A09], at FLK-1 receptor, the “Fik Kinase %Inhibition” value is -4.5%. The “PDGF Kinase %Inhibition” value on PDGF-R worked out at 16.4%.

In the case of `CNS(=O)(=O)c1ccc2c(c1)C(=Cc1c(Br)cnn1-c1ccc(Cl)cc1)C(=O)N2` [10725/D10], the “Fik Kinase %Inhibition” value at FLK-1 receptor is 9.0%. Also, on PDGF-R, the “PDGF Kinase %Inhibition” value is listed as 43.8%. The matching figures for `CCOC(=O)c1[nH]c(C=C2C(=O)Nc3c(Br)cc(Br)cc32)c(C(=O)OC)c1C` [10726/A03]: -2.6% and 4.3%. On to `COc1cc(C)cc(O)c1C=C1C(=O)Nc2ccc(S(=O)(=O)Nc3ccc(C(F)(F)F)cc3)cc21` [10725/E06], for which the “Fik Kinase %Inhibition” value at FLK-1 receptor is on record as -1.8%. For the same compound, at PDGF-R, the “PDGF Kinase %Inhibition” value was found to be 39.0%. Take `CCOC(=O)c1[nH]c(C=C2C(=O)Nc3ccc(Br)c(C)c32)c(C(=O)OC)c1C` [10726/C03]: the “Fik Kinase %Inhibition” value at FLK-1 receptor is reported as 24.9%. The “PDGF Kinase %Inhibition” value on PDGF-R turned out to be 28.4%. Turning to `COc1cccc(O)c1C=C1C(=O)Nc2ccc(S(=O)(=O)N3CCOCC3)cc21` [10717/F10], the “Fik Kinase %Inhibition” value at FLK-1 receptor is -4,4%. Take `COc1cc(C)cc(O)c1C=C1C(=O)Nc2ccc(Br)c(C)c21` [10725/C06]: the “Fik Kinase %Inhibition” value at FLK-1 receptor is recorded as -9.3%. The “PDGF Kinase %Inhibition” value on PDGF-R is given as 46.6%. In the same order, the values of `COc1ccc(Br)c(C=C2C(=O)Nc3ccc(S(=O)(=O)N4CCOCC4)cc32)c1O` [10725/F03] are 4.3% and -27.1%.

Consider `O=C1Nc2ccc(I)cc2C1=Cc1ccc(Br)o1` [10726/B05], for which the “Fik Kinase %Inhibition” value on FLK-1 receptor was determined as 13.2%. The “PDGF Kinase %Inhibition” value at PDGF-R is reported as 27.1%. The matching figures for `O=C1Nc2c(Br)cc(Br)cc2C1=Cc1ccc(Br)o1` [10726/A05]: -7.1% and 22.1%. With `Cc1cn(C)cc1C=C1C(=O)Nc2ccc(Br)c(C)c21` [10726/C06], the “Fik Kinase %Inhibition” value on FLK-1 receptor was determined as 23.8%. In addition, at PDGF-R, the “PDGF Kinase %Inhibition” value was 36.0%. `O=C1Nc2ccc(CCCl)cc2C1=Cc1ccc(N2CCOCC2)cc1` [10725/G08]: the “Fik Kinase %Inhibition” value at FLK-1 receptor is listed as -14.8%. Further, the “PDGF Kinase %Inhibition” value at PDGF-R was found to be 8.3%. For the compound `Cc1cc(C=C2C(=O)Nc3ccc(S(=O)(=O)N4CCOCC4)cc32)[nH]n1` [10725/F05], at FLK-1 receptor, the “Fik Kinase %Inhibition” value was -0.8%. Moreover, at PDGF-R, the “PDGF Kinase %Inhibition” value is recorded as -5.6%. As to `CCOC(=O)c1[nH]c(C=C2C(=O)Nc3ccc(I)cc32)c(C(=O)OC)c1C` [10726/B03], the “Fik Kinase %Inhibition” value at FLK-1 receptor is 11.1%. For the same compound, at PDGF-R, the “PDGF Kinase %Inhibition” value is 16.4%.

Consider `Cc1c(Br)ccc2c1C(=Cc1ccc(N3CCOCC3)cc1)C(=O)N2` [10725/C08], for which the “Fik Kinase %Inhibition” value on FLK-1 receptor is recorded as -8.7%. The “PDGF Kinase %Inhibition” value on PDGF-R is listed as 101.7%. In the same order, the values of `Cc1cc(C=C2C(=O)Nc3ccc(I)cc32)cc(C(C)(C)C)c1O` [10726/B04] are 16.8% and 39.1%. In the same order, the values of `O=C1Nc2ccc(F)cc2C1=C1C(=O)Nc2c(Br)cc(Br)cc21` [10726/A08] are -4.0% and 10.7%. Take `O=CN1CCN(c2ccc(C=C3C(=O)Nc4ccc(CCCl)cc43)cc2)CC1` [10725/G07]: the “Fik Kinase %Inhibition” value at FLK-1 receptor is reported as 4.8%. Moreover, the “PDGF Kinase %Inhibition” value on PDGF-R came to 23.7%. `O=C1Nc2ccc(S(=O)(=O)N3CCOCC3)cc2C1=Cc1sccc1Br` [10725/F02]: the “Fik Kinase %Inhibition” value at FLK-1 receptor was 5.8%. In addition, the “PDGF Kinase %Inhibition” value at PDGF-R is on record as -15.1%. The matching figures for `CCc1ccc(C=C2C(=O)Nc3ccc(I)cc32)s1` [10726/B10]: 3.7% and 6.2%.

Turning to `COc1ccc(Br)c(C=C2C(=O)Nc3ccc(CCCl)cc32)c1O` [10725/G03], on FLK-1 receptor, the “Fik Kinase %Inhibition” value is on record as -6.9%. Besides, the “PDGF Kinase %Inhibition” value at PDGF-R is reported as -6.5%. Take `Cc1ccc(C=C2C(=O)Nc3ccc(S(=O)(=O)N4CCOCC4)cc32)s1` [10717/F07]: the “Fik Kinase %Inhibition” value on FLK-1 receptor amounted to 2.0%. For `O=C1Nc2ccc(CCCl)cc2C1=Cc1c(Br)cnn1-c1ccc(Cl)cc1` [10725/G10], the “Fik Kinase %Inhibition” value at FLK-1 receptor is 11.1%. The “PDGF Kinase %Inhibition” value at PDGF-R was 44.7%. The matching figures for `O=CN1CCN(c2ccc(C=C3C(=O)Nc4ccc(S(=O)(=O)Nc5ccc(C(F)(F)F)cc5)cc43)cc2)CC1` [10725/E07]: 9.7% and 28.9%. Consider `CCc1ccc(C=C2C(=O)Nc3c(Br)cc(Br)cc32)s1` [10726/A10], for which, on FLK-1 receptor, the “Fik Kinase %Inhibition” value is on record as 3.7%. Also, the “PDGF Kinase %Inhibition” value on PDGF-R turned out to be 8.1%. In the same order, the values of `Cc1cn(C)cc1C=C1C(=O)Nc2c(Br)cc(Br)cc21` [10726/A06] are -4.6% and 22.1%.

`Cc1[nH]c(C=C2C(=O)Nc3ccc(S(=O)(=O)N4CCOCC4)cc32)c(Br)c1Br` [10717/F11]: on FLK-1 receptor, the “Fik Kinase %Inhibition” value is recorded as 1.4%. With `COc1ccc(C=C2C(=O)Nc3c(Br)cc(Br)cc32)cc1` [10726/A11], on FLK-1 receptor, the “Fik Kinase %Inhibition” value is recorded as 0.5%. For the same compound, the “PDGF Kinase %Inhibition” value on PDGF-R turned out to be 23.3%. Consider `COc1cc(C)cc(O)c1C=C1C(=O)Nc2ccc(S(=O)(=O)N3CCOCC3)cc21` [10725/F06], for which the “Fik Kinase %Inhibition” value on FLK-1 receptor is on record as -1.0%. The “PDGF Kinase %Inhibition” value on PDGF-R was found to be 14.1%. Consider `O=C1Nc2ccc(S(=O)(=O)N3CCOCC3)cc2C1=Cc1c(Br)cnn1-c1ccc(Cl)cc1` [10725/F10], for which, at FLK-1 receptor, the “Fik Kinase %Inhibition” value was 4.8%. For the same compound, the “PDGF Kinase %Inhibition” value on PDGF-R is recorded as 17.9%. On to `CCOc1ccccc1C=C1C(=O)Nc2ccc(CCCl)cc21` [10717/G02], for which the “Fik Kinase %Inhibition” value at FLK-1 receptor is recorded as 14.9%.

As to `O=C1Nc2ccc(S(=O)(=O)N3CCOCC3)cc2C1=Cc1ccc(N2CCOCC2)cc1` [10725/F08], the “Fik Kinase %Inhibition” value at FLK-1 receptor is reported as 8.9%. At PDGF-R, the “PDGF Kinase %Inhibition” value came to 28.9%. Regarding `Cc1cc(C=C2C(=O)Nc3c(Br)cc(Br)cc32)cc(C(C)(C)C)c1O` [10726/A04], the “Fik Kinase %Inhibition” value at FLK-1 receptor is reported as 7.6%. Further, the “PDGF Kinase %Inhibition” value on PDGF-R amounted to 44.2%. The matching figures for `COc1ccc(C=C2C(=O)Nc3ccc(I)cc32)cc1` [10726/B11]: 7.4% and 23.3%.

On to `CNS(=O)(=O)c1ccc2c(c1)C(=Cc1ccc(N3CCN(C=O)CC3)cc1)C(=O)N2` [10725/D07], for which the “Fik Kinase %Inhibition” value at FLK-1 receptor is on record as 2.6%. Moreover, the “PDGF Kinase %Inhibition” value on PDGF-R is 18.4%.

For the compound `Cc1c(Br)ccc2c1C(=Cc1sccc1Br)C(=O)N2` [10725/C02], on FLK-1 receptor, the “Fik Kinase %Inhibition” value worked out at 7.0%. Further, on PDGF-R, the “PDGF Kinase %Inhibition” value was -5.1%.

On to `Cc1cc(C=C2C(=O)Nc3ccc(S(=O)(=O)Nc4ccc(C(F)(F)F)cc4)cc32)[nH]n1` [10725/E05], for which the “Fik Kinase %Inhibition” value at FLK-1 receptor is given as -0.2%. Further, the “PDGF Kinase %Inhibition” value at PDGF-R came out at 27.5%. Consider `O=C1Nc2ccc(S(=O)(=O)N3CCOCC3)cc2C1=Cc1ccc(Br)cc1` [10717/F08], for which the “Fik Kinase %Inhibition” value at FLK-1 receptor is reported as -0.7%. Still for that read-out and setting: with `O=C1Nc2ccc(S(=O)(=O)N3CCOCC3)cc2C1=Cc1ccc[nH]1` [10717/F09] the figure was -13.3%; with `O=C1Nc2c(Br)cc(Br)cc2C1=Cc1ccc(F)cc1` [10717/A05], -2.6%. Turning to `O=C1Nc2ccc(CCCl)cc2C1=Cc1cccs1` [10717/G03], the “Fik Kinase %Inhibition” value on FLK-1 receptor turned out to be 1.8%.
